Assay results published in patent publication US10537610B1, “Peptide for inhibition of cancer” (priority 2018, dated 2020).
Like-named read-outs stand apart in the source and are kept apart here. Non-standard residues stand in square brackets, D forms with d. Residues, ends and D or L forms follow the SMILES beside them.

Tests used:
Format in all cases: cell-based, human
[1] = system: breast cancer cells (MCF-7, MDA-MB-231) across HMEC-1 monolayer; assay: Transmigration (TEM) of breast cancer cells across the endothelial monolayer
Protocol: (§1) The peptides were synthesized and purified by LifeTein, LLC (Somerset, N.J., USA) with the purity of not less than 95% using PeptideSyn™ technology that incorporates solid phase fluorenylmethyloxycarbonyl (Fmoc) chemistry. The cells were treated with the peptide P4D for 0, 1, 5, or 24 hours at a concentration of 500 μM. The cells treated with the Scrambled peptide P4D (Scr; 500 μM; 0, 1, 5, or 24 hours incubation time) were used as a negative control. In order to provide the positive control of the junctions tightening for impedance-based measurements of endothelial permeability, the cells were incubated with the potent activator of TJ assembly, forskolin (FSK; BioShop, Burlington, ON, Canada), for 24 hours at a concentration of 10 μM.
HMEC-1 endothelial cells were cultured in fibronectin-coated Transwell units with polycarbonate filter and 8 μm pores (Costar, Corning, N.Y., USA) in 24-well plates for 2 days at 37° C. to form a confluent monolayer. Human breast cancer (MCF-7, MDA-MB-231) or non-tumorigenic (MCF-10A) human breast cells were starved overnight and labeled with the green fluorescent marker CellTracker Green CMFDA Dye (Molecular Probes, Eugene, Oreg., USA). An aliquot (1×10^5/well) of fluorescent breast cancer cells in serum-free medium was added in the top of the Transwell chamber, whereas the conditioned medium was used as a chemoattractant in the lower compartment. Non-tumorigenic human breast cell line MCF-10A was used as control. The wells containing the serum-free medium in the lower compartment were used to estimate the background migration. The breast cancer cells were allowed to migrate across the endothelial monolayer for 6 hours in a humidified incubator (temperature of 37° C. and 5% CO2 atmosphere) with or without the previously specified factors or with their combinations.
At the end of the transmigration assay, non-migrated cells were gently wiped out from the inner surface of the membrane with cosmetic cotton swab. The assay was documented at 200× magnification (10× eyepiece and 20× objective) with fluorescent inverted microscope Axio Vert.A1 (Zeiss, Oberkochen, Germany) and high-performance CMOS 2.3-MP AxioCam 702 mono digital camera (Zeiss) controlled by ZEN software, version 2.3 (Zeiss). The migrated cells (five randomly chosen fields of each well) were counted using the Cell Counter tool of the ImageJ software. Cell migration towards serum-free medium was treated as background and subtracted from the corresponding numbers of cells migrated towards conditioned medium.

[2] = system: MCF-10A cells across HMEC-1 monolayer; assay: Transmigration (TEM) of MCF-10A cells across the endothelial monolayer
Protocol: as §1
HMEC-1 endothelial cells were cultured in fibronectin-coated Transwell units with polycarbonate filter and 8 μm pores (Costar, Corning, N.Y., USA) in 24-well plates for 2 days at 37° C. to form a confluent monolayer. […]
At the end of the transmigration assay, non-migrated cells were gently wiped out from the inner surface of the membrane with cosmetic cotton swab. […] The migrated cells (five randomly chosen fields of each well) were counted using the Cell Counter tool of the ImageJ software. […]

[3] = system: HMEC-1 endothelial monolayer
Protocol: The cells were treated with the peptide P4D for 0, 1, 5, or 24 hours at a concentration of 500 μM. The cells treated with the Scrambled peptide P4D (Scr; 500 μM; 0, 1, 5, or 24 hours incubation time) were used as a negative control. In order to provide the positive control of the junctions tightening for impedance-based measurements of endothelial permeability, the cells were incubated with the potent activator of TJ assembly, forskolin (FSK; BioShop, Burlington, ON, Canada), for 24 hours at a concentration of 10 μM. Experiments based on impedance measurements were performed at Bionanopark, Ltd. (Lodz, Poland) with an ACEA xCELLigence® Real-Time Cell Analysis (RTCA) DP system (Roche, Mannheim, Germany) consisting of an RTCA DP instrument, a personal computer-based RTCA control unit and single-use electronic 16-well plates “E-Plate VIEW 16 PET”. All experiments were performed following the manufacturer's instructions. In brief, the gold-film electrodes deposited on the bottom of the “E-plate VIEW 16 PET” electrode arrays were equilibrated with MCDB 131 culture medium overnight. Subsequently, the medium was aspirated and replaced by a 100 μL of fresh medium for impedance background measurements. HMEC-1 cells were seeded at a density of 40,000 cells per well in MCDB 131 medium with supplements. After allowing cell sedimentation for 30 min at room temperature, plates were locked into the RTCA DP instrument for continuous recording of impedance changes at three different AC frequencies (10 kHz, 25 kHz, 50 kHz), which are expressed as Cell Index (CI) values. CI is a dimensionless parameter based on relative impedance changes referenced to the values of the cell-free electrode at each frequency: [formula] where N is the number of the frequency points at which the impedance was measured, whereas […] Rb(fi) are the frequency-dependent electrode resistances with cells present and without cells, respectively. Thus, CI is a quantitative measure of cell status in a well, including the cell number, cell viability, adhesion degree, and morphology. Although CI is measured at three frequencies, only the most sensitive readings are returned by the software as a function of time and reported as the final results. In general, CI values rise with increasing coverage of the electrode with cells, which is caused at an early stage by cell sedimentation and, later on, by cell proliferation. During the phase of logarithmic cell growth HMEC-1 cells were pretreated with cytokines (TNF/IFN) and after 24 hours subsequently treated with the tested compounds (Scr, P4D, or FSK). For some experiments, the cells were treated with the compounds 2 hours after the cytokines treatment. Alternatively, the compounds treatment was applied about 3 hours after HMEC-1 seeding and about 67 hours later was followed by the cytokines treatment. This experimental approach included additionally the sample designated as 'P4D & TNF/IFN' i.e. after the pretreatment with P4D the cells were subjected to the concurrent treatment with P4D and cytokines.

JAM-A mRNA = assay: RT-PCR of JAM-A mRNA in HMEC-1 cells; conditions: Tβ4 200 nM or TGF-β1 10 ng/mL

Molecule	transmigration of breast cancer cells across cytokine-activated endothelial monolayer ([1]; P4D 500 μM, HMEC-1 preincubated with TNF/IFN)	Tβ4-activated TEM ([1]; P4D 500 μM, HMEC-1 preincubated with Tβ4 200 nM for 24 hours, all tested MECs (MCF-7, MDA-MB-231, MCF-10A))	degree of TEM inhibition, MCF-7 cells compared with other MECs ([1]; P4D 500 μM, inflamed endothelium)	transmigration of MCF-10A cells across cytokine-treated endothelium ([2]; P4D 500 μM, TNF/IFN-treated HMEC-1)	barrier-protecting effect (Cell Index) ([3]; P4D about 2.5 hours after plating plus second supplementary dose simultaneously with cytokines ('P4D & TNF/IFN'))	barrier-protecting effect (Cell Index) ([3]; P4D about 2.5 hours after plating, cytokines about 60 hours later, no supplementary dose)	barrier-strengthening effect relative to forskolin ([3]; applied ~24 hours after seeding, FSK 10 μM)	endothelial barrier function (Cell Index) ([3]; applied ~24 hours after seeding, compared to controls)	barrier-protecting effect (Cell Index) ([3]; compound applied 24 hours after treatment with inflammatory cytokines (TNF/IFN))	JAM-A expression on mRNA level (JAM-A mRNA)	transmigration of MCF-7 and MDA-MB-231 across HMEC-1 monolayer, effect of Tβ4 ([1]; Tβ4 200 nM, 24 hours, vs. CTRL (non-treated) cells)	TEM of MCF-10A cells, effect of Tβ4 ([2]; Tβ4 200 nM, 24 hours, in the presence of the Scr peptide)
CC(C)[C@H](NC(=O)[C@H](CO)NC(=O)[C@H](N)CCCCN)C(=O)N[C@H](C(=O)N[C@H](CCCNC(=N)N)C(=O)N[C@@H](CCC(=O)O)C(=O)N[C@@H](CC(=O)O)C(=O)N[C@H](C(=O)NCC(=O)N[C@H](C(=O)N[C@@H](Cc1ccc(O)cc1)C(=O)N[C@H](C(=O)N[C@@H](CS)C(N)=O)[C@@H](C)O)[C@@H](C)O)[C@@H](C)O)[C@@H](C)O [Peptide P4D, NH2-(dK)-SVT-(dR)-EDTGTYTC-CONH2] (H-[dK]SVT[dR]EDTGTYTC-NH2)	hindered	abrogated the Tβ4-activated TEM	highest degree of TEM inhibition	markedly inhibited	even more evident than that one of FSK	did not reveal any barrier-protecting properties	apparently weaker than that one of forskolin	slightly strengthened endothelial barrier function	did not reproduce the barrier-protecting effect of FSK			
Thymosin β4 (SDKPDMAEIEKFDKSKLKKTETQEKNPLPSKETIEQEKQAGES; not fully specified; Thymosin beta-4; UniProt P62328 2-44, looked up) [Tβ4]										no observed changes of JAM-A expression on mRNA level	slightly stimulated	significantly elevated the TEM of MCF-10A cells
